Test results taken from patent US20260124214A1, “HETEROCYCLIC COMPOUNDS FOR USE IN THE TREATMENT OF CANCER” (ARTIOS PHARMA LIMITED, priority 2021, published 2026).
Where a name gives a salt, the structure may show the parent alone.

Target: T1, Human Polθ polymerase domain (aa1820-2590) (Homo sapiens, UniProt O75417)
T1 construct: Human Polθ polymerase domain (aa1820-2590) was expressed in E. Coli; made in house; host or cells: E. coli
T1 sequence (O75417 1820-2590): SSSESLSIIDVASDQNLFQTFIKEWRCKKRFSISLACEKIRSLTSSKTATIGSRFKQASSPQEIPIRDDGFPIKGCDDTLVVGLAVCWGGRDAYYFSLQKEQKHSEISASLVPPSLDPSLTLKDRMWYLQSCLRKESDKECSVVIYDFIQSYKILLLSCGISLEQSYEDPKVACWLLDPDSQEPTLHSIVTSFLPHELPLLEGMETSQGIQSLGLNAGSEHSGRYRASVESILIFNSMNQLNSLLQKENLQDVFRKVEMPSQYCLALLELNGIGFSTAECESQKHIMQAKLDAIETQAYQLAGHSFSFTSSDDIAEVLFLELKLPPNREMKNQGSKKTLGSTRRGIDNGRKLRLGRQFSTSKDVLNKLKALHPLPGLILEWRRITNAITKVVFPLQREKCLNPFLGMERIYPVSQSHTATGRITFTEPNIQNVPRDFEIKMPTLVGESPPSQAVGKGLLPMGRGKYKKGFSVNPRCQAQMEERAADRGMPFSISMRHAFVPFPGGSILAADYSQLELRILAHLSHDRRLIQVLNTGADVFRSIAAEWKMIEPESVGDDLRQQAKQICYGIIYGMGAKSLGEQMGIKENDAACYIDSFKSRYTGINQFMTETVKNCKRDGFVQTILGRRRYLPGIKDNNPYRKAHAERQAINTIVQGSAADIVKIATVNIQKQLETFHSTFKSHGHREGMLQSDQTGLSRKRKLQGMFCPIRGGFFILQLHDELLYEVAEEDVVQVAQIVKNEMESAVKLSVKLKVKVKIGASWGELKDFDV
Assay: Polθ Polymerase Domain WT KI Assay (PicoGreen)
Type: biochemical
Conditions: 100 nM DNA substrate, 0.156 nM Polθ, initial rates vs inhibitor concentration
How it was run: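 E. coli-expressed human Polθ polymerase domain (aa1820-2590) on annealed DNA II Short/Long primer-template (1.2:1), in 25 mM Tris pH 7.5, NaCl, 5% glycerol, 0.01% Triton X-100, 0.1 mg/ml BSA, 1 mM DTT, 1% DMSO. EDTA-quenched timepoints to 180 min, PicoGreen fluorescence. Initial rates vs inhibitor concentration fitted four-parameter for KI.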

With Cc1cc(C(F)(F)F)cc(N2C(=O)C[C@@H]3CN(CCO)c4c(F)cccc4N(C)C(=O)[C@H]32)n1 [Example 18, (3aR,11aS)-6-Fluoro-5-(2-hydroxyethyl)-10-methyl-1-(6-methyl-4-(trifluoromethyl)pyridin-2-yl)-1,3a,4,5,10,11a-hexahydro-2H-benzo[b]pyrrolo[2,3-f][1,4]diazocine-2,11(3H)-dione] the Ki was 16.7 nM.

With Cc1cc(C(F)(F)F)cc(N2C(=O)C[C@@H]3CN(CCN4CCNCC4)c4c(Cl)cccc4N(C)C(=O)[C@H]32)n1 [Example 19, (3aR,11aS)-6-Chloro-10-methyl-1-(6-methyl-4-(trifluoromethyl)pyridin-2-yl)-5-(2-(piperazin-1-yl)ethyl)-1,3a,4,5,10,11a-hexahydro-2H-benzo[b]pyrrolo[2,3-f][1,4]diazocine-2,11(3H)-dione] the Ki was 1.87 nM.

Cc1cc(C(F)(F)F)cc(N2C(=O)C[C@@H]3CN(CCN4CCOCC4)c4c(Cl)cccc4N(C)C(=O)[C@H]32)n1 [Example 20, (3aR,11aS)-6-Chloro-10-methyl-1-(6-methyl-4-(trifluoromethyl)pyridin-2-yl)-5-(2-morpholinoethyl)-1,3a,4,5,10,11a-hexahydro-2H-benzo[b]pyrrolo[2,3-f][1,4]diazocine-2,11(3H)-dione] gave a Ki of 1.82 nM.

CCN(CC)CCN1C[C@H]2CC(=O)N(c3cc(C(F)(F)F)cc(C)n3)[C@@H]2C(=O)N(C)c2cccc(Cl)c21 [Example 21, (3aR,11aS)-6-Chloro-5-(2-(diethylamino)ethyl)-10-methyl-1-(6-methyl-4-(trifluoromethyl)pyridin-2-yl)-1,3a,4,5,10,11a-hexahydro-2H-benzo[b]pyrrolo[2,3-f][1,4]diazocine-2,11(3H)-dione] showed a Ki of 9.94 nM.

In the case of Cc1cc(C(F)(F)F)cc(N2C(=O)C[C@@H]3CN(CCN4CCC(F)(F)CC4)c4c(Cl)cccc4N(C)C(=O)[C@H]32)n1 [Example 22, (3aR,11aS)-6-Chloro-5-(2-(4,4-difluoropiperidin-1-yl)ethyl)-10-methyl-1-(6-methyl-4-(trifluoromethyl)pyridin-2-yl)-1,3a,4,5,10,11a-hexahydro-2H-benzo[b]pyrrolo[2,3-f][1,4]diazocine-2,11(3H)-dione], the Ki is reported as 1.79 nM.

In the case of Cc1cc(C(F)(F)F)cc(N2C(=O)C[C@@H]3CN(CCN4CCC(F)(F)C4)c4c(Cl)cccc4N(C)C(=O)[C@H]32)n1 [Example 23, (3aR,11aS)-6-Chloro-5-(2-(3,3-difluoropyrrolidin-1-yl)ethyl)-10-methyl-1-(6-methyl-4-(trifluoromethyl)pyridin-2-yl)-1,3a,4,5,10,11a-hexahydro-2H-benzo[b]pyrrolo[2,3-f][1,4]diazocine-2,11(3H)-dione], the Ki is reported as 1.48 nM.

Work on Cc1cc(C(F)(F)F)cc(N2C(=O)C[C@@H]3CN(CCN4CCOC[C@H]4C)c4c(Cl)cccc4N(C)C(=O)[C@H]32)n1 [Example 24, (3aR,11aS)-6-Chloro-10-methyl-1-(6-methyl-4-(trifluoromethyl)pyridin-2-yl)-5-(2-((R)-3-methylmorpholino)ethyl)-1,3a,4,5,10,11a-hexahydro-2H-benzo[b]pyrrolo[2,3-f][1,4]diazocine-2,11(3H)-dione] yielded a Ki of 1.78 nM.

Cc1cc(C(F)(F)F)cc(N2C(=O)C[C@@H]3CN(CCN4CCOC[C@@H]4C)c4c(Cl)cccc4N(C)C(=O)[C@H]32)n1 [Example 25, (3aR,11aS)-6-Chloro-10-methyl-1-(6-methyl-4-(trifluoromethyl)pyridin-2-yl)-5-(2-((S)-3-methylmorpholino)ethyl)-1,3a,4,5,10,11a-hexahydro-2H-benzo[b]pyrrolo[2,3-f][1,4]diazocine-2,11(3H)-dione] gave a Ki of 0.711 nM.

Cc1cc(C(F)(F)F)cc(N2C(=O)C[C@@H]3CN(CCN4CCN(CCF)CC4)c4c(Cl)cccc4N(C)C(=O)[C@H]32)n1 [Example 26, (3aR,11aS)-6-Chloro-5-(2-(4-(2-fluoroethyl)piperazin-1-yl)ethyl)-10-methyl-1-(6-methyl-4-(trifluoromethyl)pyridin-2-yl)-1,3a,4,5,10,11a-hexahydro-2H-benzo[b]pyrrolo[2,3-f][1,4]diazocine-2,11(3H)-dione] was tested, and the Ki was 2.72 nM.

Work on COCCN1CCN(CCN2C[C@H]3CC(=O)N(c4cc(C(F)(F)F)cc(C)n4)[C@@H]3C(=O)N(C)c3cccc(Cl)c32)CC1 [Example 27, (3aR,11aS)-6-Chloro-5-(2-(4-(2-methoxyethyl)piperazin-1-yl)ethyl)-10-methyl-1-(6-methyl-4-(trifluoromethyl)pyridin-2-yl)-1,3a,4,5,10,11a-hexahydro-2H-benzo[b]pyrrolo[2,3-f][1,4]diazocine-2,11(3H)-dione] yielded a Ki of 1.33 nM.

Cc1cc(C(F)(F)F)cc(N2C(=O)C[C@@H]3CN(CCN4CCN(C5COC5)CC4)c4c(Cl)cccc4N(C)C(=O)[C@H]32)n1 [Example 28, (3aR,11aS)-6-Chloro-10-methyl-1-(6-methyl-4-(trifluoromethyl)pyridin-2-yl)-5-(2-(4-(oxetan-3-yl)piperazin-1-yl)ethyl)-1,3a,4,5,10,11a-hexahydro-2H-benzo[b]pyrrolo[2,3-f][1,4]diazocine-2,11(3H)-dione] was tested, and the Ki was 1.97 nM.

Work on Cc1cc(C(F)(F)F)cc(N2C(=O)C[C@@H]3CN(CCN4CC5(COC5)C4)c4c(Cl)cccc4N(C)C(=O)[C@H]32)n1 [Example 29, (3aR,11aS)-5-(2-(2-Oxa-6-azaspiro[3.3]heptan-6-yl)ethyl)-6-chloro-10-methyl-1-(6-methyl-4-(trifluoromethyl)pyridin-2-yl)-1,3a,4,5,10,11a-hexahydro-2H-benzo[b]pyrrolo[2,3-f][1,4]diazocine-2,11(3H)-dione] yielded a Ki of 1.42 nM.

With Cc1cc(C(F)(F)F)cc(N2C(=O)C[C@@H]3CN(CCN4CCN(C)[C@@H](C)C4)c4c(Cl)cccc4N(C)C(=O)[C@H]32)n1 [Example 30, (3aR,11aS)-6-Chloro-5-(2-((S)-3,4-dimethylpiperazin-1-yl)ethyl)-10-methyl-1-(6-methyl-4-(trifluoromethyl)pyridin-2-yl)-1,3a,4,5,10,11a-hexahydro-2H-benzo[b]pyrrolo[2,3-f][1,4]diazocine-2,11(3H)-dione] the Ki was 0.381 nM.

Molecule Cc1cc(C(F)(F)F)cc(N2C(=O)C[C@@H]3CN(CCN4CC[C@@H](O)C4)c4c(Cl)cccc4N(C)C(=O)[C@H]32)n1 [Example 31, (3aR,11aS)-6-Chloro-5-(2-((R)-3-hydroxypyrrolidin-1-yl)ethyl)-10-methyl-1-(6-methyl-4-(trifluoromethyl)pyridin-2-yl)-1,3a,4,5,10,11a-hexahydro-2H-benzo[b]pyrrolo[2,3-f][1,4]diazocine-2,11(3H)-dione] has a Ki of 2.62 nM.

Molecule Cc1cc(C(F)(F)F)cc(N2C(=O)C[C@@H]3CN(CCN4CC[C@H](O)C4)c4c(Cl)cccc4N(C)C(=O)[C@H]32)n1 [Example 32, (3aR,11aS)-6-Chloro-5-(2-((S)-3-hydroxypyrrolidin-1-yl)ethyl)-10-methyl-1-(6-methyl-4-(trifluoromethyl)pyridin-2-yl)-1,3a,4,5,10,11a-hexahydro-2H-benzo[b]pyrrolo[2,3-f][1,4]diazocine-2,11(3H)-dione] has a Ki of 6.78 nM.

CC(=O)N1CCN(CCN2C[C@H]3CC(=O)N(c4cc(C(F)(F)F)cc(C)n4)[C@@H]3C(=O)N(C)c3cccc(Cl)c32)CC1 [Example 33, (3aR,11aS)-5-(2-(4-Acetylpiperazin-1-yl)ethyl)-6-chloro-10-methyl-1-(6-methyl-4-(trifluoromethyl)pyridin-2-yl)-1,3a,4,5,10,11a-hexahydro-2H-benzo[b]pyrrolo[2,3-f][1,4]diazocine-2,11(3H)-dione] was tested, and the Ki was 1.73 nM.

With Cc1cc(C(F)(F)F)cc(N2C(=O)C[C@@H]3CN(CCN4CCC(O)CC4)c4c(Cl)cccc4N(C)C(=O)[C@H]32)n1 [Example 34, (3aR,11aS)-6-Chloro-5-(2-(4-hydroxypiperidin-1-yl)ethyl)-10-methyl-1-(6-methyl-4-(trifluoromethyl)pyridin-2-yl)-1,3a,4,5,10,11a-hexahydro-2H-benzo[b]pyrrolo[2,3-f][1,4]diazocine-2,11(3H)-dione] the Ki was 3.82 nM.

Cc1cc(C(F)(F)F)cc(N2C(=O)C[C@@H]3CN(CCN4CC[C@H](N(C)C)[C@H](F)C4)c4c(Cl)cccc4N(C)C(=O)[C@H]32)n1 [Example 35, (3aR,11aS)-6-Chloro-5-(2-((3R,4S)-4-(dimethylamino)-3-fluoropiperidin-1-yl)ethyl)-10-methyl-1-(6-methyl-4-(trifluoromethyl)pyridin-2-yl)-1,3a,4,5,10,11a-hexahydro-2H-benzo[b]pyrrolo[2,3-f][1,4]diazocine-2,11(3H)-dione hydrochloride] was tested, and the Ki was 1.09 nM.
